Assay results from PubChem BioAssay (NCI).
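Step 1: Grow cells in 96-well plates. Step 2: Expose to compound for 48 hours at 5 concentrations. Step 3: Interpolate endpoints linearly; if unreached, use highest concentration. Definition used: TGI = concentration required for complete inhibition of growth.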

Key:
Test in all cases: NCI anticancer screen, dose series, 48 h
786-0 renal = test system: 786-0 renal
A549 NSCLC = test system: A549 NSCLC
ACHN renal = test system: ACHN renal
BT-549 breast = test system: BT-549 breast
CAKI-1 renal = test system: CAKI-1 renal
CCRF-CEM leukemia = test system: CCRF-CEM leukemia
COLO 205 colon = test system: COLO 205 colon
DU-145 prostate = test system: DU-145 prostate
EKVX NSCLC = test system: EKVX NSCLC
HCT-116 colon = test system: HCT-116 colon
HCT-15 colon = test system: HCT-15 colon
HL-60(TB) leukemia = test system: HL-60(TB) leukemia
HOP-62 NSCLC = test system: HOP-62 NSCLC
HOP-92 NSCLC = test system: HOP-92 NSCLC
HS 578T breast = test system: HS 578T breast
HT29 colon = test system: HT29 colon
IGROV1 ovarian = test system: IGROV1 ovarian
K-562 leukemia = test system: K-562 leukemia
KM12 colon = test system: KM12 colon
LOX IMVI melanoma = test system: LOX IMVI melanoma
M14 melanoma = test system: M14 melanoma
MALME-3M melanoma = test system: MALME-3M melanoma
MDA-MB-231 breast = test system: MDA-MB-231 breast
MDA-MB-435 = test system: MDA-MB-435
MDA-N = test system: MDA-N
MOLT-4 leukemia = test system: MOLT-4 leukemia
NCI-H226 lung = test system: NCI-H226 lung
NCI-H23 lung = test system: NCI-H23 lung
NCI-H460 lung = test system: NCI-H460 lung
NCI-H522 lung = test system: NCI-H522 lung
NCI/ADR-RES ovarian = test system: NCI/ADR-RES ovarian
OVCAR-3 ovarian = test system: OVCAR-3 ovarian
OVCAR-4 ovarian = test system: OVCAR-4 ovarian
OVCAR-5 ovarian = test system: OVCAR-5 ovarian
OVCAR-8 ovarian = test system: OVCAR-8 ovarian
PC-3 prostate = test system: PC-3 prostate
RPMI-8226 leukemia = test system: RPMI-8226 leukemia
RXF 393 renal = test system: RXF 393 renal
SF-268 CNS = test system: SF-268 CNS
SF-295 CNS = test system: SF-295 CNS
SF-539 CNS = test system: SF-539 CNS
SK-MEL-2 melanoma = test system: SK-MEL-2 melanoma
SK-MEL-28 melanoma = test system: SK-MEL-28 melanoma
SK-MEL-5 melanoma = test system: SK-MEL-5 melanoma
SK-OV-3 ovarian = test system: SK-OV-3 ovarian
SN12C renal = test system: SN12C renal
SNB-19 CNS = test system: SNB-19 CNS
SNB-75 CNS = test system: SNB-75 CNS
SR leukemia = test system: SR leukemia
SW-620 colon = test system: SW-620 colon
T-47D breast = test system: T-47D breast
TK-10 renal = test system: TK-10 renal
U251 CNS = test system: U251 CNS
UACC-257 melanoma = test system: UACC-257 melanoma
UO-31 renal = test system: UO-31 renal
MCF7 breast = test system: MCF7 breast
UACC-62 melanoma = test system: UACC-62 melanoma

COc1ccc(-c2cc(-c3cc(F)c(Cl)cc3Cl)[nH]n2)cc1OC
TGI (786-0 renal): 42.4 µM
TGI (A549 NSCLC): > 100 µM
TGI (ACHN renal): 30.4 µM
TGI (BT-549 breast): > 100 µM
TGI (CAKI-1 renal): > 100 µM
TGI (CCRF-CEM leukemia): 75.9 µM
TGI (COLO 205 colon): 47 µM
TGI (DU-145 prostate): > 100 µM
TGI (EKVX NSCLC): > 100 µM
TGI (HCT-116 colon): 83.6 µM
TGI (HCT-15 colon): > 100 µM
TGI (HL-60(TB) leukemia): 55 µM
TGI (HOP-62 NSCLC): > 100 µM
TGI (HOP-92 NSCLC): 67.8 µM
TGI (HS 578T breast): > 100 µM
TGI (HT29 colon): 76.6 µM
TGI (IGROV1 ovarian): > 100 µM
TGI (K-562 leukemia): > 100 µM
TGI (KM12 colon): > 100 µM
TGI (LOX IMVI melanoma): 42.1 µM
TGI (M14 melanoma): > 100 µM
TGI (MALME-3M melanoma): > 100 µM
TGI (MDA-MB-231 breast): > 100 µM
TGI (MDA-MB-435): > 100 µM
TGI (MDA-N): > 100 µM
TGI (MOLT-4 leukemia): > 100 µM
TGI (NCI-H226 lung): 52.5 µM
TGI (NCI-H23 lung): > 100 µM
TGI (NCI-H460 lung): > 100 µM
TGI (NCI-H522 lung): 81.8 µM
TGI (NCI/ADR-RES ovarian): > 100 µM
TGI (OVCAR-3 ovarian): 41.3 µM
TGI (OVCAR-4 ovarian): > 100 µM
TGI (OVCAR-5 ovarian): > 100 µM
TGI (OVCAR-8 ovarian): > 100 µM
TGI (PC-3 prostate): 79.1 µM
TGI (RPMI-8226 leukemia): 41 µM
TGI (RXF 393 renal): 43.8 µM
TGI (SF-268 CNS): > 100 µM
TGI (SF-295 CNS): 73.7 µM
TGI (SF-539 CNS): 37.3 µM
TGI (SK-MEL-2 melanoma): > 100 µM
TGI (SK-MEL-28 melanoma): > 100 µM
TGI (SK-MEL-5 melanoma): 47.3 µM
TGI (SK-OV-3 ovarian): > 100 µM
TGI (SN12C renal): 62.9 µM
TGI (SNB-19 CNS): > 100 µM
TGI (SNB-75 CNS): 61.5 µM
TGI (SR leukemia): 43.8 µM
TGI (SW-620 colon): 74.2 µM
TGI (T-47D breast): > 100 µM
TGI (TK-10 renal): > 100 µM
TGI (U251 CNS): > 100 µM
TGI (UACC-257 melanoma): > 100 µM
TGI (UO-31 renal): > 100 µM

CC1(C)C(OC(=O)c2ccccc2)C[C@]23CCC[C@](C)(C[C@@H](O)C12)C3 (stereo partly drawn)
TGI (786-0 renal): 35.7 µM
TGI (A549 NSCLC): 34.1 µM
TGI (ACHN renal): 31.9 µM
TGI (BT-549 breast): 30.3 µM
TGI (CAKI-1 renal): 40.8 µM
TGI (CCRF-CEM leukemia): 37.4 µM
TGI (COLO 205 colon): 33.6 µM
TGI (DU-145 prostate): 52.4 µM
TGI (EKVX NSCLC): 36.8 µM
TGI (HCT-116 colon): 29.1 µM
TGI (HCT-15 colon): 37.1 µM
TGI (HL-60(TB) leukemia): > 100 µM
TGI (HOP-62 NSCLC): 63.4 µM
TGI (HOP-92 NSCLC): 32.5 µM
TGI (HS 578T breast): 40.4 µM
TGI (HT29 colon): 31.4 µM
TGI (IGROV1 ovarian): 36.3 µM
TGI (K-562 leukemia): 54.8 µM
TGI (KM12 colon): 32.1 µM
TGI (LOX IMVI melanoma): 38.9 µM
TGI (M14 melanoma): 38.9 µM
TGI (MALME-3M melanoma): 38.5 µM
TGI (MCF7 breast): 30.6 µM
TGI (MDA-MB-435): 32.2 µM
TGI (MDA-N): 36.8 µM
TGI (MOLT-4 leukemia): 33.7 µM
TGI (NCI-H226 lung): 37.5 µM
TGI (NCI-H23 lung): 34 µM
TGI (NCI-H460 lung): 31.3 µM
TGI (NCI-H522 lung): 31.4 µM
TGI (NCI/ADR-RES ovarian): 46.7 µM
TGI (OVCAR-3 ovarian): 78.9 µM
TGI (OVCAR-4 ovarian): 46.6 µM
TGI (OVCAR-5 ovarian): 28.6 µM
TGI (OVCAR-8 ovarian): 36.2 µM
TGI (PC-3 prostate): 28.1 µM
TGI (RPMI-8226 leukemia): > 100 µM
TGI (SF-268 CNS): 59.5 µM
TGI (SF-295 CNS): 28.1 µM
TGI (SK-MEL-2 melanoma): 35.8 µM
TGI (SK-MEL-28 melanoma): 29.8 µM
TGI (SK-MEL-5 melanoma): 25.8 µM
TGI (SK-OV-3 ovarian): > 100 µM
TGI (SN12C renal): 34.6 µM
TGI (SNB-19 CNS): 47.8 µM
TGI (SNB-75 CNS): 34.8 µM
TGI (SR leukemia): > 100 µM
TGI (SW-620 colon): 27.9 µM
TGI (T-47D breast): 43.7 µM
TGI (TK-10 renal): 91.6 µM
TGI (UACC-257 melanoma): 35.5 µM
TGI (UACC-62 melanoma): 29 µM
TGI (UO-31 renal): 35.6 µM
